Structures are written as SMILES.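 Cultured in 96-well plates, cells were exposed to test compound for 48 hours across five concentrations. The concentration for 50% growth inhibition is given as GI50. Definition used: TGI = concentration required for complete inhibition of growth.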 Bounds are passed on as bounds.

What all share (test): NCI-60 cell line screen, 48 h
Test [1] concerns DLD-1 colon.
The test system of test [2] is DMS 273 small cell lung.
Test [3] deals with EKVX NSCLC.
The subject of test [4] is HOP-18 NSCLC.
Test [5] concerns M19-MEL melanoma.
Test [6] concerns MALME-3M melanoma.
Test [7] deals with NCI-H226 lung.
In test [8] the test system is NCI-H460 lung.
For test [9], the system named is SF-268 CNS.
The subject of test [10] is SF-539 CNS.

`CCOC(CN=c1nc(N(C)C)ss1)OCC`: the TGI in test [1] was greater than 50.8 µM; in test [2] it was greater than 67.9 µM; in test [3], greater than 80 µM; in test [4] it was greater than 100 µM; in test [5], 19.1 µM; in test [6], 52.9 µM. The TGI in test [7] was 36 µM; in [8], greater than 94.4 µM; in test [9], 59.8 µM; in [10], 31.4 µM.

Regarding `CCOC(=O)C(C)c1cc(C2(C)OCCO2)c(C)o1` (stereo not drawn), the TGI in [1], in test [2], in test [3], in test [4], in test [5] and in test [6] was greater than 100 µM in each case. For the same molecule, the TGI in [8], in test [9] and in test [10] was greater than 100 µM throughout.

For `O=C(c1ccccc1)c1c(C(=O)c2ccccc2)c(-c2ccccc2)c2c(-c3ccccc3)sc(-c3ccccc3)c2c1-c1ccccc1`, the TGI in [1], in [2], in [3], in [5], in [6] and in test [7] was greater than 100 µM in each case. For the same molecule, the TGI in test [8], in test [9] and in [10] was greater than 100 µM in each case.

As for `COC(=O)N/N=C/c1oc(-c2cccc([N+](=O)[O-])c2)c(-c2cccc([N+](=O)[O-])c2)c1[N+](=O)[O-]`, the TGI in [1], in [2], in test [3], in test [4], in test [5] and in test [8] was greater than 100 µM each time. Further, in test [9], the TGI is greater than 100 µM.

As for `O=[N+]([O-])C1C2C=CC(C2)[C@H]1c1ccccc1Cl` (stereo partly drawn), the TGI in test [1] is greater than 100 µM; in test [2], greater than 100 µM; in test [3] it was greater than 100 µM; in test [4], greater than 100 µM; in test [6], greater than 100 µM; in [7] it was 92.2 µM. Besides, the TGI in test [8], in [9] and in test [10] was greater than 100 µM throughout.

On to `N#CC12C3C4CC5C6C4C1C6C(O)(C53)N2Cc1ccccc1` (stereo not drawn), for which the TGI in test [1], in [2], in [3], in test [4], in [6] and in [7] was greater than 100 µM throughout. Moreover, the TGI in test [8], in test [9] and in test [10] was greater than 100 µM each time.

Regarding `N.N.NC(CS)C(=O)[O-].NC(CS)C(=O)[O-].[Pt+4]` (stereo not drawn), the GI50 in test [1], in [2], in test [3], in test [4], in test [6] and in test [7] was greater than 50 µM throughout. Further, the GI50 in [8], in [9] and in test [10] was greater than 50 µM each time. For the same molecule, the TGI in [1], in test [2], in test [3], in [4], in test [6] and in test [7] was greater than 50 µM throughout. The TGI in [8], in [9] and in test [10] was greater than 50 µM in each case.

As for `CC(=O)/C=C/c1ccc(C2CC(C)=Nc3c(ccc4c3C(=O)c3ccccc3C4=O)N2)cc1` (stereo not drawn), the TGI in test [1], in test [2], in test [3], in [4], in test [5] and in test [6] was greater than 100 µM throughout. For the same molecule, the TGI in test [7], in test [8], in test [9] and in test [10] was greater than 100 µM throughout.

Regarding `O=S1(=O)C[C@@H](O)[C@H](O)CS1`, the TGI in test [1], in test [2], in [3], in test [4], in test [5] and in [6] was greater than 100 µM throughout. In addition, the TGI in [7], in [8], in [9] and in test [10] was greater than 100 µM in each case.

As to `Nc1c(-c2nc3ccccc3[nH]2)sc(=S)n1-c1ccccc1`, the TGI in test [1], in test [2], in test [3], in [5], in test [6] and in test [7] was greater than 100 µM in each case. The TGI in test [8], in [9] and in [10] was greater than 100 µM throughout.

Regarding `CCOC(=O)C1C(=O)c2ccccc2CN1Cc1ccccc1` (stereo not drawn), the TGI in test [1], in test [2], in [3], in test [4], in test [5] and in test [6] was greater than 100 µM each time. Also, the TGI in [7], in [8], in test [9] and in [10] was greater than 100 µM throughout.

With `CCOP(=O)(OCC)/C(C#N)=C/c1ccco1`, the TGI in test [1], in test [3], in [4], in test [5], in test [6] and in [7] was greater than 100 µM each time. The TGI in test [8], in [9] and in [10] was greater than 100 µM throughout.

Consider `COC(=O)c1c(CC#N)cccc1CC#N`, for which the TGI in test [1], in [2], in test [3], in test [5], in test [6] and in test [7] was greater than 100 µM in each case. In addition, the TGI in [8], in test [9] and in [10] was greater than 100 µM in each case.

(Values after PubChem BioAssay (NCI).)
